Data set [1] relates to QG-56. Briefly: Toxicity in mouse xenografted with human QG56 cells assessed as reduction of body weight loss at 200 mg/kg, po administered 5 times a week for 2 weeks. It counts as functional, organism-based. Details: dose 200 mg/kg. Background: A xenograft is tissue or cells of one species grown in another, often human tumour cells in immunodeficient mice.
In data set [2] the test system is QG-56. Briefly: Antiproliferative activity against human QG56 cells. The format is functional, cell-based.
The nature of data set [3]: Apparent oral clearance in mouse at 25 mg/kg, po. It counts as ADME, organism-based. Further details: dose 25 mg/kg, route oral. As to conditions: in vivo.
Data set [4] can be described thus: Half life in mouse at 100 mg/kg, po. The format is ADME, organism-based. Further details: dose 100 mg/kg, route oral. Conditions: in vivo.
Data set [5] has as its system QG-56. Briefly: Antitumor activity against human QG56 cells xenografted in mouse assessed as reduction of tumor volume at 200 mg/kg, po administered 5 times a week for 2 weeks. It counts as functional, organism-based. Details: dose 200 mg/kg.
Data set [6] is described as follows: Cmax in mouse at 25 mg/kg, po. It counts as ADME, organism-based. As to conditions: in vivo. Further details: dose 25 mg/kg, route oral.
The target in data set [7] is Protein farnesyltransferase (Homo sapiens, UniProt P49354+P49356). Briefly: Inhibition of human FTase. The format is protein-complex assay.
Data set [8] in a line: Apparent oral clearance in mouse at 100 mg/kg, po. Details: dose 100 mg/kg, route oral. Conditions: in vivo. The format is ADME, organism-based.
Data set [9] can be described thus: Half life in mouse at 25 mg/kg, iv. It counts as ADME, organism-based. Details: dose 25 mg/kg, route intravenous. Conditions: in vivo.
Data set [10] is described as follows: Cmax in mouse at 100 mg/kg, po. The format is ADME, organism-based. Further details: dose 100 mg/kg, route oral. As to conditions: in vivo.
Data set [11] in a line: Oral bioavailability in mouse at 100 mg/kg. The format is ADME, organism-based. As to conditions: in vivo.
The nature of data set [12]: AUC (0 to 24 hrs) in mouse at 100 mg/kg, po. It counts as ADME, organism-based. Details: time < 24 hr, dose 100 mg/kg, route oral. As to conditions: plasma.
The nature of data set [13]: AUC (0 to 24 hrs) in mouse at 25 mg/kg, iv. Details: time < 24 hr, dose 25 mg/kg, route intravenous. It counts as ADME, organism-based. Conditions: plasma.
Data set [14] in a line: Half life in mouse at 25 mg/kg, po. The format is ADME, organism-based. Details: dose 25 mg/kg, route oral. Conditions: in vivo.
Data set [15] can be described thus: Oral bioavailability in mouse at 25 mg/kg. As to conditions: in vivo. It counts as ADME, organism-based.
Data set [16] can be described thus: AUC (0 to 24 hrs) in mouse at 25 mg/kg, po. Conditions: plasma. Details: time < 24 hr, dose 25 mg/kg, route oral. It counts as ADME, organism-based.

The IC50 is the point on the concentration scale where inhibition reaches its midpoint. A low value points to greater potency. For orientation: CL/F means the apparent clearance, not corrected for the fraction that reaches the circulation. One may read the half-life as the time needed for the level to fall by half in the phase considered. A lower half-life goes with rapid decline. Broadly, the Cmax is the highest concentration seen after dosing. By bioavailability is commonly meant the share of a dose that reaches the circulation, judged against a reference dose that is usually intravenous. High values mean good availability, low ones poor availability. A word on the AUC(0-t): it is the area under the concentration-time curve up to a stated or last time point. A higher AUC(0-t) goes with more exposure.

For the compound `Cn1cncc1[C@@](N)(c1ccc(C#N)cc1)c1cc2cc(C#N)cc(-c3cccc(F)c3)c2o1`, the Activity entry is “Not toxic” in data set [1] and “Non-toxic” in data set [5]. The IC50 in data set [2] came out at 2 nM; in [7], 1.1 nM. Moreover, the CL/F in [3] turned out to be 40.8 mL/min/kg; in data set [8], 41 mL/min/kg. The results for the half-life in [4], in [9] and in data set [14] were 12.3 h, 1.2 h and 2.4 h, respectively. The Cmax in data set [6] turned out to be 1570 ng/mL; in [10] it was 5010 ng/mL. Besides, the bioavailability in data set [11] stood at 51%; in data set [15] it was 66%. The AUC(0-t) at 24 h in data set [12] was 31300 ng·h/mL; in data set [13], 15400 ng·h/mL; in data set [16], 10200 ng·h/mL.

Consider `Cn1cncc1[C@@](N)(c1ccc(C#N)cc1)c1cc2cc([N+](=O)[O-])cc(-c3ccccc3)c2o1`, for which the IC50 in data set [2] stood at 5.9 nM; in data set [7], 1.5 nM.

For the compound `Cn1cncc1[C@](N)(c1ccc(C#N)cc1)c1cc2cc([N+](=O)[O-])cc(-c3ccccc3)c2o1`, the IC50 in [2] was determined as 206 nM; in [7], 49 nM.

`COc1cccc(-c2cc(C#N)cc3cc([C@](N)(c4ccc(C#N)cc4)c4cncn4C)oc23)c1`: the IC50 came to 1.5 nM in data set [2] and 1.2 nM in data set [7].

`Cn1cncc1[C@@](N)(c1ccc(C#N)cc1)c1cc2cc(C#N)cc(-c3cccc(C#N)c3)c2o1`: the IC50 in data set [2] is 2 nM; in data set [7], 0.7 nM.

Turning to `COc1cccc(-c2cc([N+](=O)[O-])cc3cc([C@](N)(c4ccc(C#N)cc4)c4cncn4C)oc23)c1`, the results for the IC50 in data set [2] and in [7] were 1.1 nM and 0.8 nM, respectively.

As for `Cn1cncc1C(O)(c1ccc(C#N)cc1)c1cc2cc([N+](=O)[O-])cc(-c3cccc(F)c3)c2o1` (racemic), the IC50 worked out at 145 nM in data set [2] and 6.3 nM in data set [7].

On to `Cn1cncc1C(O)(c1ccc(C#N)cc1)c1cc2cc([N+](=O)[O-])cc(-c3ccc(C#N)cc3)c2o1` (racemic), for which the IC50 in [2] amounted to 32.6 nM; in data set [7] it was 3.4 nM.

As to `Cn1cncc1C(O)(c1ccc(Cl)cc1)c1cc2cc([N+](=O)[O-])cc(-c3ccccc3)c2o1` (racemic), the IC50 in [2] was 1880 nM; in [7] it was 170 nM.

Turning to `Cn1cncc1C(O)(c1ccc(C(=O)OC(C)(C)C)cc1)c1cc2cc([N+](=O)[O-])cc(-c3ccccc3)c2o1` (racemic), the values for the IC50 in [2] and in [7] were 6250 nM and over 1000 nM, respectively.

Turning to `COC(=O)c1cc(-c2cccc(OC)c2)c2oc(C(O)(c3ccc(C#N)cc3)c3cncn3C)cc2c1` (racemic), the values for the concentration for half-maximal inhibition (IC50) in data set [2] and in [7] were 36.3 nM and 3.2 nM, respectively.

Take `COc1ccc(C(O)(c2cc3cc([N+](=O)[O-])cc(-c4ccccc4)c3o2)c2cncn2C)cc1` (racemic): the values for the half-inhibitory concentration (IC50) in data set [2] and in data set [7] were 4970 nM and 250 nM, respectively.

For the compound `Cn1cncc1C(O)(c1ccc(C#N)cc1)c1cc2cc([N+](=O)[O-])cc(-c3ccccc3F)c2o1` (racemic), the IC50 in data set [2] was 89.5 nM; in [7], 3.3 nM.

`Cn1cncc1C(O)(c1ccc(C#N)cc1)c1cc2cc([N+](=O)[O-])cc(-c3cccc(C#N)c3)c2o1` (racemic): the IC50 in data set [2] turned out to be 22.9 nM.

Consider `Cc1cccc(-c2cc([N+](=O)[O-])cc3cc(C(O)(c4ccc(C#N)cc4)c4cncn4C)oc23)c1` (racemic), for which the concentration for half-maximal inhibition (IC50) is 23.2 nM in data set [2] and 11 nM in [7].

With `COc1cccc(-c2cc([N+](=O)[O-])cc3cc(C(O)(c4ccc(C#N)cc4)c4cncn4C)oc23)c1` (racemic), the IC50 stood at 38.8 nM in data set [2] and 8.5 nM in data set [7].

As for `COc1cccc(-c2cc(CN(C)C)cc3cc(C(O)(c4ccc(C#N)cc4)c4cncn4C)oc23)c1` (racemic), the figures for the concentration for half-maximal inhibition (IC50) in data set [2] and in [7] were 142 nM and 11 nM, respectively.

For the compound `Cn1cncc1C(O)(c1ccc(C#N)cc1)c1cc2cc(C#N)cc(-c3ccccc3)c2o1` (racemic), the IC50 was 14.5 nM in [2] and 2.4 nM in data set [7].

`COc1cccc(-c2cc(C(N)=O)cc3cc(C(O)(c4ccc(C#N)cc4)c4cncn4C)oc23)c1` (racemic): the IC50 in [2] is 8.2 nM; in data set [7] it was 0.9 nM.

For the compound `COc1cccc(-c2cc(C(=O)NN3CCOCC3)cc3cc(C(O)(c4ccc(C#N)cc4)c4cncn4C)oc23)c1` (racemic), in [7], the IC50 was 2.6 nM.

Consider `COc1ccc(-c2cc([N+](=O)[O-])cc3cc(C(O)(c4ccc(C#N)cc4)c4cncn4C)oc23)cc1` (racemic), for which the IC50 is 36 nM in data set [2] and 4 nM in data set [7].

`COc1cccc(-c2cc(C=O)cc3cc(C(O)(c4ccc(C#N)cc4)c4cncn4C)oc23)c1` (racemic): the values for the 50% inhibitory concentration (IC50) in [2] and in [7] were 15.2 nM and 2 nM, respectively.

Take `Cn1cncc1C(O)(c1ccc(Cl)cc1)c1cc2cc(C(=O)NN3CCOCC3)cc(-c3ccccc3)c2o1` (racemic): it took 73.6 nM to reach half-maximal inhibition in data set [2] (IC50).

On to `COc1cccc(-c2cc(CO)cc3cc(C(O)(c4ccc(C#N)cc4)c4cncn4C)oc23)c1` (racemic), for which the IC50 in data set [2] was 16.8 nM; in data set [7], 1 nM.

In the case of `Cn1cncc1C(O)(c1ccc(C(=O)O)cc1)c1cc2cc([N+](=O)[O-])cc(-c3ccccc3)c2o1` (racemic), the IC50 in data set [2] was over 10000 nM; in data set [7], 850 nM.

On to `Cn1cncc1C(O)(c1ccc(C#N)cc1)c1cc2cc([N+](=O)[O-])cc(-c3ccccc3)c2o1` (racemic), for which the IC50 was 1480 nM in data set [2] and 6.4 nM in data set [7].

As to `Cn1cncc1C(O)(c1ccc([N+](=O)[O-])cc1)c1cc2cc([N+](=O)[O-])cc(-c3ccccc3)c2o1` (racemic), the IC50 in [2] came to 547 nM; in data set [7], 30 nM.

Regarding `Cn1cncc1C(O)(c1ccc(C#N)cc1)c1cc2cc([N+](=O)[O-])cc(-c3ccc(F)cc3)c2o1` (racemic), the IC50 in [2] stood at 158 nM; in [7], 7.2 nM.

On to `Cn1cncc1C(O)(c1ccc(Br)cc1)c1cc2cc([N+](=O)[O-])cc(-c3ccccc3)c2o1` (racemic), for which the half-inhibitory concentration (IC50) in data set [2] amounted to 1480 nM; in data set [7], 360 nM.

In the case of `Cn1cncc1C(O)(c1ccc(I)cc1)c1cc2cc([N+](=O)[O-])cc(-c3ccccc3)c2o1` (racemic), the IC50 in data set [2] is over 10000 nM; in [7], 360 nM.

Source of the values: ChEMBL document CHEMBL1153291, “Synthesis and structure-activity relationships of novel benzofuran farnesyltransferase inhibitors” (Bioorg Med Chem Lett, 2009).
